Our source for the IC50 and EC50 values is patent publication US10669272B2, “Substituted naphthyridinone compounds useful as T cell activators” (BRISTOL-MYERS SQUIBB COMPANY, priority 2018, dated 2020).

One assay concerns the target T1, human DGKζ (Homo sapiens, UniProt Q13574).
T1 construct: TVMV protease cleavage site (C); Hexa-His (C); made in house; host or cells: Sf9 insect cells (baculovirus, Bac-to-Bac)
The assay can be described thus: DGKζ LIPGLO assay (extruded liposome substrate), in vitro DGK inhibition. As to conditions: DGKζ liposome (LIPGLO) assay; read-out: DGKz LIPGLO IC50. The class given is biochemical.

The test system of another assay is Human venous whole blood. The experiment in a line: Human whole blood IFN-γ assay.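 Note: blood from healthy donors exposed to compound for 1 h before stimulation with anti-CD3 and anti-CD28 at 1 µg/mL each, IFN-γ quantified in supernatant by AlphaLISA.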 The class given is cell-based. The conditions noted are these: human whole blood, anti-CD3 plus anti-CD28, 24 hours, 3 μM reference compound = 100% activation, read-out: INFg Whole Blood Normalized Agonist EC50.
Another assay deals with T2, human DGKα (Homo sapiens, UniProt P23743).
T2 construct: TVMV protease cleavage site (C); Hexa-His (C); made in house; host or cells: Sf9 insect cells (baculovirus, Bac-to-Bac)
T2 sequence (P23743 with tags, fused parts or gaps): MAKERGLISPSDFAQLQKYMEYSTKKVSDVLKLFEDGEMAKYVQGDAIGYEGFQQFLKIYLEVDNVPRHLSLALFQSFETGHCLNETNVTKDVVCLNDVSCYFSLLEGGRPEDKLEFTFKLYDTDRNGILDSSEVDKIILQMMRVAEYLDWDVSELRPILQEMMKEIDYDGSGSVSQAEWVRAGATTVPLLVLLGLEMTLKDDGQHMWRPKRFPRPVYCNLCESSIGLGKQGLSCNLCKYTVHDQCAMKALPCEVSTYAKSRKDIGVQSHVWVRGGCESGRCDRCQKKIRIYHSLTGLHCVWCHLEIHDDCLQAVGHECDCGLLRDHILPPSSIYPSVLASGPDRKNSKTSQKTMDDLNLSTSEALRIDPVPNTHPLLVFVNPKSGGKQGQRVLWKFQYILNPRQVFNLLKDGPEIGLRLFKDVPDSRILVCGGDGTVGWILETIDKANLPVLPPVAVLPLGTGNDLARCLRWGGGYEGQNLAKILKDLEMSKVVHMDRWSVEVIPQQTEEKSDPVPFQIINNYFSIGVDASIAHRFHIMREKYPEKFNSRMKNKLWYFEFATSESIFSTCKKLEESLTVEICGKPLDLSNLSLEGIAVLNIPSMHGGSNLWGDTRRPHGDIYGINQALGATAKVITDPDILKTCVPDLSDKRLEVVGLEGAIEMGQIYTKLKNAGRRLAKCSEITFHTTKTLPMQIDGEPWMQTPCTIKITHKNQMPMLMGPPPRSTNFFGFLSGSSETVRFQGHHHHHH
The experiment in a line: DGKα LIPGLO assay (extruded liposome substrate), in vitro DGK inhibition. Format: biochemical. As to conditions: DGKα liposome (LIPGLO) assay; read-out: DGKa LIPGLO IC50.

Like-named read-outs stand apart in the source and are kept apart here. Bounds are passed on as bounds.

T1 sequence (Q13574 with tags, fused parts or gaps isoform Q13574-4): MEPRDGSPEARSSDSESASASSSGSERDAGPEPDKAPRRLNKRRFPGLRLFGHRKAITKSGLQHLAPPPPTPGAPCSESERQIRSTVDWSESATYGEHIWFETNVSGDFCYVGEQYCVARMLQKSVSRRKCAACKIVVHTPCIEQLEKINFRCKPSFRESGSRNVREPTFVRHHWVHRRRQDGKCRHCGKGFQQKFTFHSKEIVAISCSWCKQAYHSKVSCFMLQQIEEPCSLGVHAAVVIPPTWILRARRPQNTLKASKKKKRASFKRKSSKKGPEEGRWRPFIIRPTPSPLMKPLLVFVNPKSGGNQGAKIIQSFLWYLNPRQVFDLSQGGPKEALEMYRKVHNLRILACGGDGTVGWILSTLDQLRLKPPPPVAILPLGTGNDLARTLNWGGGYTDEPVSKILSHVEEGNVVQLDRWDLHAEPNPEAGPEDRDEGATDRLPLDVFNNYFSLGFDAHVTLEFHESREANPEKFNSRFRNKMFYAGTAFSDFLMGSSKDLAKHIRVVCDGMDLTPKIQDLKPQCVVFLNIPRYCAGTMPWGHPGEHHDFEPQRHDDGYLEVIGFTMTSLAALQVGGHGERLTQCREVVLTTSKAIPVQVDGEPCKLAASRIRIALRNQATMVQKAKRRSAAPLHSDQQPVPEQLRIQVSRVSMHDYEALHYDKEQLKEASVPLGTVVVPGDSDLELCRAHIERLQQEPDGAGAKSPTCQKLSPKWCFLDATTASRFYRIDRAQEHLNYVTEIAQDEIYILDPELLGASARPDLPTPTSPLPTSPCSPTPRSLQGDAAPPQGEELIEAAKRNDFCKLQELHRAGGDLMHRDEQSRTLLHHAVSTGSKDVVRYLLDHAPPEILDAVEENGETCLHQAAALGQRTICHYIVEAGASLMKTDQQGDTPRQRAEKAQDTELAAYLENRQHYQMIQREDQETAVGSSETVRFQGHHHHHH
Description for Human venous whole blood: Human Whole Blood IFN-γ Assay
Human venous whole blood (22.5 μL per well), obtained from healthy donors, was pre-treated with compounds for one hour at 37° C. in a humidified 95% air/5% CO2 incubator. The blood was stimulated with 2.5 μL anti-human CD3 and anti-CD28 mAb at a final concentration of 1 μg/mL each for 24 hours at 37° C. IFN-γ in the supernatants was measured using AlphLISA kit (Cat # AL217).

As a reminder, the IC50 is the concentration at which inhibition is half-maximal. Usually EC50 stands for the midpoint of the concentration-response curve. For the compound `C[C@@H]1CN(c2c(C#N)c(=O)n(C)c3ccc(C#N)nc23)[C@@H](C)CN1C(c1ccc(F)cc1)c1csc(C2CC2)n1` (single isomer, unassigned) [Example 859], the half-maximal inhibitory concentration (IC50) at human DGKζ worked out at 0.36 µM; at human DGKα, 3 µM. The concentration giving a half-maximal response (EC50) with Human venous whole blood stood at 3.7 µM.
Take `C[C@@H]1CN(c2c(C#N)c(=O)n(C)c3ccc(C#N)nc23)[C@@H](C)CN1C(c1ccc(F)cc1)c1nc(C2CC2)no1` (single isomer, unassigned) [Example 860]: the IC50 on human DGKζ was found to be 1.3 µM; at human DGKα, 0.41 µM. Also, the EC50 with Human venous whole blood (Homo sapiens, 24 h) turned out to be 0.72 µM.
As to `C[C@@H]1CN(c2c(C#N)c(=O)n(C)c3ccc(C#N)nc23)[C@@H](C)CN1C(c1ccc(F)cc1)c1nc(C2CC2)no1` (single isomer, unassigned) [Example 861], the IC50 amounted to 0.63 µM on human DGKζ and 0.42 µM at human DGKα. The EC50 with Human venous whole blood worked out at 0.42 µM.
With `CC1CN(C(c2ccc(F)cc2)c2nc(C(C)(C)C)no2)C(C)CN1c1c(C#N)c(=O)n(C)c2ccc(C#N)nc12` (single isomer, unassigned) [Example 862], the IC50 at human DGKζ amounted to 0.6 µM; at human DGKα it was 0.29 µM. Besides, in the assay on Human venous whole blood (Homo sapiens, 24 h), the concentration for a half-maximal effect (EC50) turned out to be 1.2 µM.
Consider `CC1CN(C(c2ccc(F)cc2)c2nc(C(C)(C)C)no2)C(C)CN1c1c(C#N)c(=O)n(C)c2ccc(C#N)nc12` (single isomer, unassigned) [Example 863], for which the IC50 is 0.19 µM on human DGKζ and 0.53 µM at human DGKα. Further, the EC50 in the assay with Human venous whole blood was 0.72 µM.
For `Cc1cc(C(c2ccc(F)cc2)N2C[C@H](C)N(c3c(C#N)c(=O)n(C)c4ccc(C#N)nc34)C[C@H]2C)no1` (single isomer, unassigned) [Example 864], the values for the IC50 at human DGKζ and at human DGKα were 1 µM and 0.17 µM, respectively. Also, in the assay on Human venous whole blood (Homo sapiens, 24 h), the EC50 was found to be 6.5 µM.
As for `C[C@@H]1CN(c2c(C#N)c(=O)n(C)c3ccc(C#N)nc23)[C@@H](C)CN1C(c1ccc(F)cc1)c1cc(C(C)(C)C)on1` (single isomer, unassigned) [Example 866], the half-maximal inhibitory concentration (IC50) at human DGKζ was 0.94 µM; on human DGKα, 0.39 µM. The EC50 in the assay with Human venous whole blood is 2.3 µM.
With `C[C@@H]1CN(c2c(C#N)c(=O)n(C)c3ccc(C#N)nc23)[C@@H](C)CN1C(c1ccc(F)cc1)c1cc(C(C)(C)C)on1` (single isomer, unassigned) [Example 867], the results for the 50% inhibitory concentration (IC50) on human DGKζ and at human DGKα were 7.9 µM and more than 250 µM, respectively. Further, the concentration for a half-maximal effect (EC50) in the assay on Human venous whole blood worked out at 20 µM.
Consider `C[C@@H]1CN(c2c(C#N)c(=O)n(C)c3ccc(C#N)nc23)[C@@H](C)CN1C(c1ccc(F)cc1)c1cc(C2CC2)on1` (single isomer, unassigned) [Example 868], for which the 50% inhibitory concentration (IC50) on human DGKζ was found to be 2.4 µM; on human DGKα, 0.44 µM. Further, the EC50 in the assay on Human venous whole blood (Homo sapiens, 24 h) is 2.2 µM.
Turning to `C[C@@H]1CN(c2c(C#N)c(=O)n(C)c3ccc(C#N)nc23)CCN1C(c1ccc(F)cc1)c1ccc(C#N)cc1` (single isomer, unassigned) [Example 871], the concentration for half-maximal inhibition (IC50) at human DGKζ worked out at 1.3 µM; on human DGKα it was 1.1 µM. Moreover, the concentration for a half-maximal effect (EC50) with Human venous whole blood (Homo sapiens, 24 h) came out at 3 µM.
Turning to `C[C@@H]1CN(c2c(C#N)c(=O)n(C)c3ccc(C#N)nc23)CCN1C(c1ccccc1)c1cc(F)cc(F)c1` (single isomer, unassigned) [Example 875], the IC50 on human DGKζ is 0.51 µM; on human DGKα it was 1.7 µM. For the same compound, the concentration giving a half-maximal response (EC50) in the assay with Human venous whole blood (Homo sapiens, 24 h) was found to be 3.1 µM.
For the compound `C[C@@H]1CN(c2c(C#N)c(=O)n(C)c3ccc(C#N)nc23)CCN1C(c1ccccc1)c1ccc(F)cc1` (single isomer, unassigned) [Example 878], the IC50 at human DGKζ stood at 1.3 µM; at human DGKα it was 1.9 µM. In the assay with Human venous whole blood, the half-maximal effective concentration (EC50) came out at 0.57 µM.
Take `C[C@@H]1CN(c2c(C#N)c(=O)n(C)c3ccc(C#N)nc23)CCN1C(c1ccccc1)c1ccc(F)cc1` (single isomer, unassigned) [Example 879]: the IC50 on human DGKζ turned out to be 1.1 µM; on human DGKα, 0.6 µM. For the same compound, the 50% effective concentration (EC50) in the assay on Human venous whole blood was 1.2 µM.
Take `Cc1ccc(C(c2ncccc2F)N2CCN(c3c(C#N)c(=O)n(C)c4ccc(C#N)nc34)C[C@H]2C)cc1` (single isomer, unassigned) [Example 890]: the IC50 at human DGKζ amounted to 8.4 µM; at human DGKα, 11 µM. The concentration for a half-maximal effect (EC50) in the assay on Human venous whole blood (Homo sapiens, 24 h) was 6.6 µM.
Consider `C[C@@H]1CN(c2c(C#N)c(=O)n(C)c3ccc(C#N)nc23)CCN1C(c1ccc(F)cc1)c1ncccc1F` (single isomer, unassigned) [Example 891], for which the figures for the IC50 at human DGKζ and on human DGKα were 3 µM and 3.1 µM, respectively. Also, the concentration for a half-maximal effect (EC50) with Human venous whole blood (Homo sapiens, 24 h) was 2.8 µM.
On to `Cc1ccc(C(c2ncccc2F)N2CCN(c3c(C#N)c(=O)n(C)c4ccc(C#N)nc34)C[C@H]2C)cc1` (single isomer, unassigned) [Example 892], for which the IC50 at human DGKζ worked out at 1.3 µM; on human DGKα, 1.8 µM. The concentration for a half-maximal effect (EC50) in the assay on Human venous whole blood was 5 µM.
Take `C[C@@H]1CN(c2c(C#N)c(=O)n(C)c3ccc(C#N)nc23)CCN1C(c1ccc(F)cc1)c1ncccc1F` (single isomer, unassigned) [Example 893]: the IC50 worked out at 0.72 µM at human DGKζ and 0.92 µM at human DGKα. Besides, in the assay on Human venous whole blood, the concentration for a half-maximal effect (EC50) stood at 1.7 µM.
For `COc1ncccc1C(c1ccc(F)cc1)N1CCN(c2c(C#N)c(=O)n(C)c3ccc(C#N)nc23)C[C@H]1C` (single isomer, unassigned) [Example 894] the same measures were 0.68 µM, 8.6 µM and 4 µM.
On to `COc1ncccc1C(c1ccc(F)cc1)N1CCN(c2c(C#N)c(=O)n(C)c3ccc(C#N)nc23)C[C@H]1C` (single isomer, unassigned) [Example 895], for which the IC50 stood at 2.7 µM on human DGKζ and 0.71 µM at human DGKα. In addition, the EC50 in the assay on Human venous whole blood was determined as 1.8 µM.
Take `C[C@@H]1CN(c2c(C#N)c(=O)n(C)c3ccc(C#N)nc23)CCN1C(c1ccc(F)cc1)c1ccc(C(F)(F)F)cn1` (single isomer, unassigned) [Example 897]: the half-inhibitory concentration (IC50) stood at 5.1 µM at human DGKζ and 0.25 µM at human DGKα. The concentration giving a half-maximal response (EC50) in the assay on Human venous whole blood worked out at 13 µM.
`Cc1ccc(C(c2ccc(F)cc2)N2CCN(c3c(C#N)c(=O)n(C)c4ccc(C#N)nc34)C[C@H]2C)nc1` (single isomer, unassigned) [Example 904]: the figures for the IC50 on human DGKζ and at human DGKα were 1.4 µM and 0.17 µM, respectively. Moreover, in the assay with Human venous whole blood (Homo sapiens, 24 h), the EC50 came out at 0.52 µM.
For the compound `Cc1cccc(C(c2ccc(F)cc2)N2CCN(c3c(C#N)c(=O)n(C)c4ccc(C#N)nc34)C[C@H]2C)n1` (single isomer, unassigned) [Example 905], the results for the IC50 at human DGKζ and on human DGKα were 1.2 µM and 4.6 µM, respectively. Besides, the concentration for a half-maximal effect (EC50) with Human venous whole blood (Homo sapiens, 24 h) was 1.3 µM.
With `C[C@@H]1CN(c2c(C#N)c(=O)n(C)c3ccc(C#N)nc23)CCN1C(c1ccc(F)cc1)c1ccc(C#N)cn1` (single isomer, unassigned) [Example 908], the IC50 at human DGKζ was found to be 3.9 µM; at human DGKα, 0.77 µM. The EC50 with Human venous whole blood came to 1.4 µM.
In the case of `C[C@@H]1CN(c2c(C#N)c(=O)n(C)c3ccc(C#N)nc23)CCN1C(c1ccc(F)cc1)c1ccc(C(F)(F)F)cc1` (single isomer, unassigned) [Example 910], the IC50 came to 11 µM on human DGKζ and 3 µM at human DGKα. Further, the half-maximal effective concentration (EC50) in the assay on Human venous whole blood is 20 µM.
On to `C[C@@H]1CN(c2c(C#N)c(=O)n(C)c3ccc(C#N)nc23)CCN1C(c1cccc(F)c1)c1ccc(F)cn1` (single isomer, unassigned) [Example 911], for which the results for the IC50 at human DGKζ and on human DGKα were 1.2 µM and 0.69 µM, respectively. In the assay on Human venous whole blood, the EC50 was 0.34 µM.
For `C[C@@H]1CN(c2c(C#N)c(=O)n(C)c3ccc(C#N)nc23)CCN1C(c1ccc(F)cc1)c1ccc(C(F)(F)F)cc1` (single isomer, unassigned) [Example 914], the half-inhibitory concentration (IC50) at human DGKζ stood at 1.5 µM; at human DGKα it was 1.3 µM. For the same compound, in the assay on Human venous whole blood, the EC50 came out at 1.9 µM.
Regarding `C[C@@H]1CN(c2c(C#N)c(=O)n(C)c3ccc(C#N)nc23)CCN1C(c1ccc(F)cc1)c1ccccn1` (single isomer, unassigned) [Example 919], the IC50 was found to be 5.8 µM at human DGKζ and 0.98 µM on human DGKα. Further, the half-maximal effective concentration (EC50) in the assay on Human venous whole blood worked out at 1.4 µM.
For `C[C@@H]1CN(c2c(C#N)c(=O)n(C)c3ccc(C#N)nc23)CCN1C(c1ccc(F)cc1)c1ccc(C#N)cc1` (single isomer, unassigned) [Example 920], the IC50 on human DGKζ is 13 µM; at human DGKα, 4.9 µM. Besides, in the assay with Human venous whole blood, the EC50 worked out at 1.9 µM.
For `C[C@@H]1CN(c2c(C#N)c(=O)n(C)c3ccc(C#N)nc23)CCN1C(c1ccc(F)cc1)c1cccc(C(F)(F)F)n1` (single isomer, unassigned) [Example 921], the IC50 at human DGKζ was 3.1 µM; on human DGKα, 23 µM. Besides, in the assay on Human venous whole blood, the EC50 came out at 1.5 µM.
In the case of `Cc1ccc(C(c2cccc(F)c2)N2CCN(c3c(C#N)c(=O)n(C)c4ccc(C#N)nc34)C[C@H]2C)nc1` (single isomer, unassigned) [Example 923], the IC50 on human DGKζ was 1.9 µM; on human DGKα it was 5.5 µM. In the assay on Human venous whole blood (Homo sapiens, 24 h), the EC50 was 0.8 µM.
Turning to `C[C@@H]1CN(c2c(C#N)c(=O)n(C)c3ccc(C#N)nc23)CCN1C(c1ccc(F)cc1)c1ccc(C#N)cn1` (single isomer, unassigned) [Example 924], the values for the IC50 on human DGKζ and on human DGKα were 10 µM and 3.2 µM, respectively. In the assay on Human venous whole blood, the 50% effective concentration (EC50) is 4 µM.
Consider `Cc1ccc(C(c2cccc(Cl)c2)N2CCN(c3c(C#N)c(=O)n(C)c4ccc(C#N)nc34)C[C@H]2C)nc1` (single isomer, unassigned) [Example 928], for which the IC50 on human DGKζ was 1.5 µM; on human DGKα, 2.4 µM. Also, the EC50 in the assay on Human venous whole blood (Homo sapiens, 24 h) was 1.7 µM.
For `Cc1ccc(C(c2cccc(Cl)c2)N2CCN(c3c(C#N)c(=O)n(C)c4ccc(C#N)nc34)C[C@H]2C)nc1` (single isomer, unassigned) [Example 929], the half-inhibitory concentration (IC50) at human DGKζ stood at 1.1 µM; at human DGKα, 7.7 µM. In the assay with Human venous whole blood, the half-maximal effective concentration (EC50) was found to be 1.3 µM.
